Assay [1] deals with human islets. Description: Glucose-stimulated insulin secretion (GSIS) perifusion assay. In kind it is cell-based. The note with it: 24 h ± AAGP then 24 hr tacrolimus 10 ng/mL; Tac− 158.8. How it is done: Islet secretory function is assessed by monitoring in vitro insulin secretory profile during continuous glucose stimulation, as described by Cabrera et al Cell transplantation 2008;16(10):1039-1048. This in vitro perifusion assay is a modality of continuous Glucose-Stimulated Insulin Secretion (GSIS) test to stress islets in alternating normoglycemic and hyperglycemic environment to model physiological islet response. Supernatants from the perifusion assay are collected and insulin levels are determined using a commercially available ELISA kit (Insulin ELISA kit. Mercodia Inc. Pittsburgh, PA, USA). Results are expressed as fold-change of insulin secretion compared to the low (2.8 mMol) glucose stimulation baseline, normalized for 100 IEQ.

For assay [2], the system named is human islets. Put plainly: Extracellular ROS in culture media, Acridan Lumigen PS-3 assay. Format: cell-based. As to conditions: media 24 hr after tacrolimus exposure, ± AAGP. How it is done:
Frozen samples from all groups are utilized to determine reactive oxygen species (ROS) in the culture media, using the Acridan Lumigen™ PS-3 assay (Amershan ECL Plus kit, Fisher Scientific Inc. Ottawa, ON, Canada) (18). In this assay Acridan Lumigen™ PS-3 is excited by reactive oxygen and nitrogen species (RNS) in the presence of hydrogen peroxide, producing chemiluminescense at 430 nm. Media samples are flash-frozen with liquid nitrogen and stored until the assay is performed. CMRL culture media alone is used as a control, and results are expressed as fold-change increase compared to the control media.

The subject of assay [3] is syngeneic islet transplant. Put plainly: Syngeneic full mass islet transplant with continuous tacrolimus treatment. In kind it is in vivo, mouse. The text has this:
FIG. 11 illustrates the post-transplant graft function in immunodefficient mice receiving minimal human islet mass (˜1000 IEQ). Islets were previously treated with AAGP™ and tracrolimus accordingly. […] The dotted line indicates graft recovery nephrectomy on day 60. B. Intraperitoneal glucose tolerance test (IPGTT) to evaluate metabolic response after receiving a glucose bolus. C. Insulin content of removed grafts after 60 days of transplant as an indication of residual islet mass. Data points represent mean±SEM adjusted per gram of tissue, (Tac− n=6, Tac+ n=3 and Tac+AAGP™ n=7), *p<0.05, **p<0.01 and ***p<0.001. D and E. Post-transplant graft function in mice receiving syngeneic full mass (˜500 IEQ) islet transplant. AAGP™ was added to the culture media 1 hour prior to transplant and tacrolimus was administered via a subcutaneous osmotic pump (implanted during the same procedure) at a continuous rate of 1 mg/kg/day. D. Pooled blood glucose profiles of animal over 40 days with clear dysfunction for Tac+ islets during the presence of Tac. Vertical dotted line indicates tacrolimus treatment cessation and marks a gradual recovery of Tac+ grafts. Horizontal continuous line at y=11 indicates the normoglycemia limit. Graft recovery nephrectomy was again performed on day 30. E. Mean time-to-euglycemia after transplant showing Tac+AAGP™ mice reversing diabetes earlier (p<0.001, log-rank, Mantel-cox test). […] These differences were not observed in the Tac+AAGP™ group.
To further support these findings a transplant experiment was performed in a syngeneic diabetic mouse transplant model with continuous treatment with tacrolimus to resemble clinical practice.
To make our experiments more clinically relevant, a new in vivo syngeneic mouse transplant model was performed, with tacrolimus as a continuous treatment by means of a subcutaneous osmotic pump. It was observed that the functional impairment of transplanted islets occurred immediately after starting administration of the CNI and lasted during the entire treatment period (7 days).

In the case of `C=CC[C@@H]1/C=C(\C)C[C@H](C)C[C@H](OC)[C@H]2O[C@@](O)(C(=O)C(=O)N3CCCC[C@H]3C(=O)O[C@H](/C(C)=C/[C@@H]3CC[C@@H](O)[C@H](OC)C3)[C@H](C)[C@@H](O)CC1=O)[C@H](C)C[C@@H]2OC.O` [Tac+, tacrolimus], in the assay with human islets [1], the “GSIS perifusion AUC” value amounted to 8.22. Besides, the “extracellular ROS (fold-increase vs control media)” value in the assay on human islets [2] is “substantial increase in ROS”. The “graft function / period to achieve euglycemia” value in assay [3] (AAGP in culture media 1 hour prior to transplant, tacrolimus 1 mg/kg/day by osmotic pump) was “unable to effectively secrete insulin and return animals to euglycemic state”. For the same compound, the “IPGTT AUC under tacrolimus treatment” value in assay [3] (initial IPGTT (7 days), tacrolimus 1 mg/kg/day) was found to be 101.

The record behind these values is patent US12521419B2, “Use of anti-aging glycopeptides to enhance pancreatic cell health, survival and improve transplant outcome” (Protokinetix Inc., priority 2014, dated 2026).
